# Source: PMC6826616, “Topical 2′-Hydroxyflavanone for Cutaneous Melanoma” (Cancers, 2019)
# Like-named read-outs stand apart in the source and are kept apart here.
# Key:
# [1] = tested on: B16-F0 cells; assay: MTT cytotoxicity assay, B16-F0; assay type: cell-based; conditions: Mus musculus, B16F0
# Text: We studied the growth-inhibitory effects of 2HF on the B16-F0 and B16-F10 murine melanoma cell lines as well as on the SK-MEL-24 human melanoma cell line. B16-F10 and SK-MEL-24 have been shown in previous studies to be highly resistant to treatment and much more invasive than B16-F0 [32]. […] The absorption value measured upon reduction of the MTT dye by functional mitochondria is an indirect measure of cell number that cannot distinguish inhibited cell proliferation from apoptotic or necrotic cell death. By counting viable (trypan-blue dye-excluding) cells using a hemacytometer, we verified that 2HF did indeed cause cell death.
# Figure 1 Mouse and human melanoma cell survival following 2′-hydroxyflavanone (2HF) treatment.
# The IC50 of 2HF on B16-F0, B16-F10, and SK-MEL-24 cells was determined by MTT cytotoxicity assay. Cells were harvested and Trypan Blue dye exclusion test was used to determine the number of viable cells present in a cell suspension using a hemocytometer. The cell suspension was diluted to 5 × 10^4 cells/mL with Dulbecco’s Modified Eagle’s Medium (DMEM) complete medium and 5000 cells/well were plated in 96-well plates. After 24 h incubation at 37 °C, cells were treated with 2HF concentrations ranging from 0–200 µM (8 replicates per plate). After 48 or 72 h incubation, 40 µL of MTT (5 mg/mL) solution was added. After 4 h incubation, the plate was centrifuged at 700× g for 5 min and medium was aspirated completely. Then, 50 µL DMSO was added to each well to dissolve the purple precipitate on the rocking platform for about 15 min. The absorbance was then measured at 490 nm using a 96-well microplate reader (Spectramax Plus, Molecular Devices, Inc, San Jose, CA, USA).
# [2] = tested on: B16-F10 cells; assay: EGF-pHrodo endocytosis, B16-F10 (microscopy); assay type: cell-based, mouse; conditions: Rlip-antisense, Rlip-shRNA, or 10 µM 2HF for 24 h
# Experimental: (§1) Figure 3 Effects of Rlip depletion on epidermal growth factor (EGF) endocytosis of mouse melanoma cells. Representative photomicrographs of Rlip-depleted B16-F0 and B16-F10 cells showing the inhibition of EGF-pHrodo endocytosis. […] Rlip was depleted by treating cells with Rlip-antisense, Rlip-shRNA, or 10 µM 2HF for 24 h as described in Materials and Methods section 4.8. Photographs were taken at identical exposures using 200× magnification.
# The effect of Rlip knockdown/depletion by shRNA, RLIP76-antisense (R508), or 2HF on endocytosis was studied in B16 melanoma cell lines. The cells were transfected with Rlip shRNA or R508 antisense and their scrambled shRNA and scrambled antisense (CAS) controls as previously described. Briefly, B16 cells were grown in DMEM medium containing 10% FBS on Nunc 4 chamber slides overnight to 70–80% confluence. For RLIP76 knockdown, pSUPER retro puro shRLIP plasmid DNA (8 µg/mL) and RLIP76-antisense (R508; 10 μg/mL final conc.) and their respective controls (scrambled shRNA and CAS) were pre-complexed with Lipofectamine 2000 reagent in Opti-MEM® reduced serum medium for transfection of the cells. Other sets of slides were treated with vehicle (Methanol) or 10 µM 2HF to inhibit Rlip expression. […] Slides were analyzed using a fluorescence microscope (Olympus America, Melville, NY, USA). […]
# [3] = tested on: B16-F0 cells; assay: EGF-pHrodo endocytosis, B16-F0 (microscopy and flow cytometry); assay type: cell-based, mouse; conditions: Rlip-antisense, Rlip-shRNA, or 10 µM 2HF for 24 h
# Experimental: as §1
# Figure 4 Flow cytometry analysis of EGF-pHrodo endocytosis in control or Rlip depleted B16-F0 cells. Flow cytometry analysis of B16-F0 cells was performed 24 h after Rlip depletion by shRNA, RLIP76-antisense, or treatment with […] 2HF. Cells were stained with EGF-pHrodo. EGF-pHrodo-positive cells as shown on scatter plots were identified and gated based on forward and side scatter properties. The PE channel was used for red fluorescence to measure EGF-pHrodo positivity. […] Each flow cytometry analysis plot is a representative example of three independent experiments. […]
# The effect of Rlip knockdown/depletion by shRNA, RLIP76-antisense (R508), or 2HF on endocytosis was studied in B16 melanoma cell lines. […] Slides were analyzed using a fluorescence microscope (Olympus America, Melville, NY, USA). […]
# The effect of Rlip knockdown on endocytosis was further checked by flow cytometry. […] After 24 h, cells were trypsinized, washed with cold PBS, and counted. […]
compound,measurement,setting,value
"O=C1CC(c2ccccc2O)Oc2ccccc21 (stereo not shown) [2HF, 2′-hydroxyflavanone]",IC50,"[1]; MTT, 72 h, mean ±SD, n = 5, read-out: IC50 at 72 h (growth/survival)",38 ± 4 µM
same,IC50,"[1]; Table 1, agent alone, read-out: IC50",38.6 ± 1.61 µM
same,EGF-pHrodo endocytosis (fluorescence microscopy),[2],completely blocked
same,EGF-pHrodo endocytosis (fluorescence microscopy),[3],completely blocked
